{
  "source": "patent US20150037257A1",
  "about": "“COMPOSITIONS AND METHODS FOR HIGH-THROUGHPUT SCREENING IN SKIN FIBROBLASTS WITH AN ALPHA-SYNUCLEIN TRIPLICATION” (priority 2011, published 2015)",
  "type_in_all_cases": "cell-based, human",
  "key": {"control fibroblasts [1]": {"tested_on": "control fibroblasts", "assay": "Dose-response test of control fibroblasts with PQ (cell death)", "conditions": "300 uM PQ, 48 hrs", "experimental": "(§1) Cell viability was assessed using the CytoTox-ONE Homogeneous Membrane integrity Assay kit (Cat. No 07890, Promega, Madison, Wis.), which is a fluorescent measure of lactate dehydrogenase (LDH) released from cells with a damaged membrane by conversion of resazurin into resorufin. The assay was performed in a 96-well format according to the manufacturers' instructions. Briefly, 10,000 cells/well of control cells and 12,500 cells/well of SNCA-Tri fibroblasts were used for paraquat (PQ) exposure experiments; 12,500 cells/well were used in siRNA knockout experiments. Cell number was measured using WST-1 proliferation reagent (Roche, Indianapolis, Ind.) in a parallel plate.\n(§2) Cells were exposed to freshly prepared PQ (N,N′-dimethyl-4,4′-bipyridinium dichloride) (Sigma, M2254) at 300 uM final concentration in culture media for 48 hours without media change prior to analysis."}, "control fibroblasts [2]": {"tested_on": "control fibroblasts", "assay": "Cell viability: LDH release (CytoTox-ONE) after paraquat exposure", "conditions": "controls, 300 uM PQ, 48 hrs", "experimental": "as §1, §2"}, "SNCA-Tri fibroblasts [3]": {"tested_on": "SNCA-Tri fibroblasts", "assay": "Cell viability: LDH release (CytoTox-ONE) after paraquat exposure / siRNA knockdown", "conditions": "300 uM PQ, 48 hrs", "experimental": "as §1, §2\n(§3) The sequence of SNCA1 siRNA were used after the method of Fountaine et al, 2008. Custom siRNA (Dharmacon, Lafayette, Colo.) at a concentration of 75 nM (scrambled or α-syn targeted siRNA, SNCA1) was transfected at 90% cell confluency using […] Lipofectamine™ 2000 (Invitrogen) according to the manufacturer's instruction. Transfection efficiency was tested to be >90% with siGLO Cyclophilin B control siRNA (Dharmacon) in control fibroblasts."}, "control fibroblasts [4]": {"tested_on": "control fibroblasts", "assay": "Cellular ATP levels (ATPlite) after paraquat exposure", "conditions": "controls, 300 uM PQ, 48 hrs", "experimental": "(§4) Cellular adenosine triphosphate (ATP) levels were measured using the ATPlite kit (Cat. No. 6016943, Perkin Elmer, Waltham, Mass.) based on the reaction of ATP with added lucifcrase and D-luciferin, according to the manufacturer's instruction. ATP synthesis assays were performed on digitonin-treated fibroblasts. Briefly, for paraquat (PQ) exposure, cells were plated (6,000 cells/well in control cells and 7,500 cells/well in SNCA-Tri cells) for 24 hours prior to exposure to PQ.\nas §2"}, "SNCA-Tri fibroblasts [5]": {"tested_on": "SNCA-Tri fibroblasts", "assay": "Cellular ATP levels (ATPlite) after paraquat exposure / siRNA knockdown", "conditions": "300 uM PQ, 48 hrs", "experimental": "as §4, §2, §3"}, "control fibroblasts [6]": {"tested_on": "control fibroblasts", "assay": "Mitochondrial membrane potential (TMRM) after paraquat exposure", "conditions": "controls, 300 uM PQ, 48 hrs", "experimental": "(§5) Fibroblasts were plated in 96-well plates (6,000 cells/well in the control and 7,500 cells/well in SNCA-Tri cells) and were used for paraquat (PQ) exposure experiments. After 24 hours, cells were changed to galactose medium and cultured for another 24 hours. The mitochondrial membrane potential was measured using the fluorescent dye tetramethylrhodamine methyl ester (TMRM) (Invitrogen) at the final concentration of 150 nM. Cells were incubated for 5 minutes at 37° C. and then washed with phosphate buffered saline (PBS). To remove the plasma membrane contribution from the TMRM fluorescence, each assay was performed in parallel with 10 uM carbonyl cyanide 3-chlorophenylhydrazone (CCCP) (Sigma, St Louis, Mo.), which collapses the mitochondrial membrane potential. All data were expressed as the total TMRM fluorescence minus the CCCP-treated TMRM fluorescence. Cell number was measured using WST-1 proliferation reagent in a parallel plate, according to the manufacturer's instruction. All measurements were performed on a TECAN GENios.\nas §2"}, "SNCA-Tri fibroblasts [7]": {"tested_on": "SNCA-Tri fibroblasts", "assay": "Mitochondrial membrane potential (TMRM) after paraquat exposure / siRNA knockdown", "conditions": "300 uM PQ, 48 hrs", "experimental": "as §5, §2, §3"}, "[8]": {"tested_on": "α-syn mRNA expression in SNCA-Tri fibroblasts", "assay": "α-syn mRNA expression by qPCR after paraquat exposure", "experimental": "as §2\n(§6) Total RNA was extracted from fibroblasts using TRIzol® (Invitrogen). cDNA from 0.5 ug total RNA was synthesized by reverse transcriptase (iScript cDNA synthesis kit, BioRad, Hercules, Calif.). Primer sequences of SNCA are SNCA-F: AGTTGTGGCTGCTGCTGAG (SEQ ID NO:1) and SNCA-R: […] (SEQ ID NO:2) and of beta-actin are HuActin-F: […] (SEQ ID NO:3) and HuActin-R: GCATTTGCGGTGGACGAT (SEQ ID NO:4). The PCR products of SNCA and beta-actin (as internal control) were amplified using the SYBR Green PCR Master Mix (Applied Biosystems, Carlsbad, Calif.). Amplification of the PCR products was quantitatively measured by the ABI 7000 Sequence Detection System (Applied Biosystems). 2^−ΔΔCt method was used in all quantitative PCR analyses."}, "[9]": {"tested_on": "α-syn mRNA expression in control fibroblasts", "assay": "α-syn mRNA expression by qPCR after paraquat exposure", "conditions": "controls, vs naive expression", "experimental": "as §2, §6"}},
  "data": [
    {"smiles": "C[n+]1ccc(-c2cc[n+](C)cc2)cc1.[Cl-].[Cl-]", "note": "[PQ, N,N′-dimethyl-4,4′-bipyridinium dichloride]", "values": [
      {"measurement": "cell death", "setting": "control fibroblasts [1]", "value": "about 25%"},
      {"measurement": "LDH release, % change untreated vs PQ exposed", "setting": "control fibroblasts [2]", "value": 27, "unit": "%"},
      {"measurement": "LDH release change, fold difference SNCA-Tri vs controls", "setting": "SNCA-Tri fibroblasts [3]; 42% vs 27%", "value": 1.6, "unit": "fold"},
      {"measurement": "increase of LDH release in SNCA-Tri compared to controls after PQ exposure", "setting": "SNCA-Tri fibroblasts [3]; SNCA-Tri vs controls", "value": 46, "unit": "%"},
      {"measurement": "LDH release, % change (increase) untreated vs PQ exposed", "setting": "SNCA-Tri fibroblasts [3]; SNCA-Tri", "value": 42, "unit": "%"},
      {"measurement": "Cellular ATP decrease, untreated vs PQ exposed", "setting": "control fibroblasts [4]", "value": 33, "unit": "%"},
      {"measurement": "Cellular ATP change, fold change SNCA-Tri vs controls", "setting": "SNCA-Tri fibroblasts [5]; 56% vs 33%", "value": 1.7, "unit": "fold"},
      {"measurement": "decrease of cellular ATP in SNCA-Tri compared to controls after PQ exposure", "setting": "SNCA-Tri fibroblasts [5]; SNCA-Tri vs controls", "value": 59, "unit": "%"},
      {"measurement": "Cellular ATP decrease, untreated vs PQ exposed", "setting": "SNCA-Tri fibroblasts [5]; SNCA-Tri", "value": 56, "unit": "%"},
      {"measurement": "Mitochondrial membrane potential decrease, untreated vs PQ exposed", "setting": "control fibroblasts [6]", "value": 40, "unit": "%"},
      {"measurement": "Mitochondrial membrane potential change, fold change SNCA-Tri vs controls", "setting": "SNCA-Tri fibroblasts [7]; 61% vs 40%", "value": 1.5, "unit": "fold"},
      {"measurement": "reduction of mitochondrial membrane potential in SNCA-Tri compared to controls after PQ exposure", "setting": "SNCA-Tri fibroblasts [7]; SNCA-Tri vs controls", "value": 51, "unit": "%"},
      {"measurement": "Mitochondrial membrane potential decrease, untreated vs PQ exposed", "setting": "SNCA-Tri fibroblasts [7]; SNCA-Tri", "value": 61, "unit": "%"},
      {"measurement": "increase of α-syn mRNA expression after PQ exposure", "setting": "[8]; SNCA-Tri, vs naive expression levels", "value": 7.5, "unit": "fold"},
      {"measurement": "α-syn mRNA, fold difference SNCA-Tri over control fibroblasts after PQ treatment", "setting": "[8]; after PQ treatment", "value": 3.2, "unit": "fold"},
      {"measurement": "increase of α-syn mRNA expression after PQ exposure", "setting": "[9]", "value": 2.6, "unit": "fold"}
    ]}
  ]
}
